# According to ChEMBL document CHEMBL2401670, “Synthesis and biological evaluation of rhodanine derivatives bearing a quinoline moiety as potent antimicrobial agents” (Bioorg Med Chem Lett, 2013):
# Tested on: Staphylococcus aureus
# Test: Antibacterial activity against Staphylococcus aureus RN4220 after 24 hrs by broth microdilution method
# Type: functional
# Conditions: RN4220, 24 h
row,SMILES,MIC
1,CCC(C)[C@@H](C(=O)O)N1C(=O)/C(=C/c2cc3cc(OCc4ccccc4Cl)ccc3nc2Cl)SC1=S (stereo partly drawn),4 µg/mL
2,CCC(C)[C@@H](C(=O)O)N1C(=O)/C(=C/c2cc3cc(OCc4cccc(Cl)c4)ccc3nc2Cl)SC1=S (stereo partly drawn),2 µg/mL
3,CCC(C)[C@@H](C(=O)O)N1C(=O)/C(=C/c2cc3cc(OCc4ccc(Cl)cc4)ccc3nc2Cl)SC1=S (stereo partly drawn),2 µg/mL
4,CCC(C)[C@@H](C(=O)O)N1C(=O)/C(=C/c2cc3cc(OCc4ccccc4F)ccc3nc2Cl)SC1=S (stereo partly drawn),2 µg/mL
5,CCC(C)[C@@H](C(=O)O)N1C(=O)/C(=C/c2cc3cc(OCc4cccc(F)c4)ccc3nc2Cl)SC1=S (stereo partly drawn),2 µg/mL
6,CCC(C)[C@@H](C(=O)O)N1C(=O)/C(=C/c2cc3cc(OCc4ccc(F)cc4)ccc3nc2Cl)SC1=S (stereo partly drawn),1 µg/mL

# Tested on: Escherichia coli
# Test: Antibacterial activity against Escherichia coli CCARM 1356 after 24 hrs by broth microdilution method
# Type: functional
# Conditions: CCARM 1356, 24 h
row,SMILES,MIC
1,CCC(C)[C@@H](C(=O)O)N1C(=O)/C(=C/c2cc3cc(OCc4ccccc4Cl)ccc3nc2Cl)SC1=S (stereo partly drawn),> 64 µg/mL
2,CCC(C)[C@@H](C(=O)O)N1C(=O)/C(=C/c2cc3cc(OCc4cccc(Cl)c4)ccc3nc2Cl)SC1=S (stereo partly drawn),> 64 µg/mL
3,CCC(C)[C@@H](C(=O)O)N1C(=O)/C(=C/c2cc3cc(OCc4ccc(Cl)cc4)ccc3nc2Cl)SC1=S (stereo partly drawn),> 64 µg/mL
4,CCC(C)[C@@H](C(=O)O)N1C(=O)/C(=C/c2cc3cc(OCc4ccccc4F)ccc3nc2Cl)SC1=S (stereo partly drawn),> 64 µg/mL
5,CCC(C)[C@@H](C(=O)O)N1C(=O)/C(=C/c2cc3cc(OCc4cccc(F)c4)ccc3nc2Cl)SC1=S (stereo partly drawn),> 64 µg/mL
6,CCC(C)[C@@H](C(=O)O)N1C(=O)/C(=C/c2cc3cc(OCc4ccc(F)cc4)ccc3nc2Cl)SC1=S (stereo partly drawn),> 64 µg/mL

# Tested on: Staphylococcus aureus
# Test: Antibacterial activity against quinolone-resistant Staphylococcus aureus CCARM 3519 after 24 hrs by broth microdilution method
# Type: functional
# Conditions: CCARM 3519, 24 h
row,SMILES,MIC
1,CCC(C)[C@@H](C(=O)O)N1C(=O)/C(=C/c2cc3cc(OCc4ccccc4Cl)ccc3nc2Cl)SC1=S (stereo partly drawn),2 µg/mL
2,CCC(C)[C@@H](C(=O)O)N1C(=O)/C(=C/c2cc3cc(OCc4cccc(Cl)c4)ccc3nc2Cl)SC1=S (stereo partly drawn),2 µg/mL
3,CCC(C)[C@@H](C(=O)O)N1C(=O)/C(=C/c2cc3cc(OCc4ccc(Cl)cc4)ccc3nc2Cl)SC1=S (stereo partly drawn),2 µg/mL
4,CCC(C)[C@@H](C(=O)O)N1C(=O)/C(=C/c2cc3cc(OCc4ccccc4F)ccc3nc2Cl)SC1=S (stereo partly drawn),2 µg/mL
5,CCC(C)[C@@H](C(=O)O)N1C(=O)/C(=C/c2cc3cc(OCc4cccc(F)c4)ccc3nc2Cl)SC1=S (stereo partly drawn),2 µg/mL
6,CCC(C)[C@@H](C(=O)O)N1C(=O)/C(=C/c2cc3cc(OCc4ccc(F)cc4)ccc3nc2Cl)SC1=S (stereo partly drawn),1 µg/mL

# Tested on: Staphylococcus aureus
# Test: Antibacterial activity against Staphylococcus aureus KCTC 209 after 24 hrs by broth microdilution method
# Type: functional
# Conditions: KCTC 209, 24 h
row,SMILES,MIC
1,CCC(C)[C@@H](C(=O)O)N1C(=O)/C(=C/c2cc3cc(OCc4ccccc4Cl)ccc3nc2Cl)SC1=S (stereo partly drawn),64 µg/mL
2,CCC(C)[C@@H](C(=O)O)N1C(=O)/C(=C/c2cc3cc(OCc4cccc(Cl)c4)ccc3nc2Cl)SC1=S (stereo partly drawn),> 64 µg/mL
3,CCC(C)[C@@H](C(=O)O)N1C(=O)/C(=C/c2cc3cc(OCc4ccc(Cl)cc4)ccc3nc2Cl)SC1=S (stereo partly drawn),8 µg/mL
4,CCC(C)[C@@H](C(=O)O)N1C(=O)/C(=C/c2cc3cc(OCc4ccccc4F)ccc3nc2Cl)SC1=S (stereo partly drawn),32 µg/mL
5,CCC(C)[C@@H](C(=O)O)N1C(=O)/C(=C/c2cc3cc(OCc4cccc(F)c4)ccc3nc2Cl)SC1=S (stereo partly drawn),32 µg/mL
6,CCC(C)[C@@H](C(=O)O)N1C(=O)/C(=C/c2cc3cc(OCc4ccc(F)cc4)ccc3nc2Cl)SC1=S (stereo partly drawn),2 µg/mL

# Tested on: Staphylococcus aureus
# Test: Antibacterial activity against quinolone-resistant Staphylococcus aureus CCARM 3505 after 24 hrs by broth microdilution method
# Type: functional
# Conditions: CCARM 3505, 24 h
row,SMILES,MIC
1,CCC(C)[C@@H](C(=O)O)N1C(=O)/C(=C/c2cc3cc(OCc4ccccc4Cl)ccc3nc2Cl)SC1=S (stereo partly drawn),2 µg/mL
2,CCC(C)[C@@H](C(=O)O)N1C(=O)/C(=C/c2cc3cc(OCc4cccc(Cl)c4)ccc3nc2Cl)SC1=S (stereo partly drawn),1 µg/mL
3,CCC(C)[C@@H](C(=O)O)N1C(=O)/C(=C/c2cc3cc(OCc4ccc(Cl)cc4)ccc3nc2Cl)SC1=S (stereo partly drawn),2 µg/mL
4,CCC(C)[C@@H](C(=O)O)N1C(=O)/C(=C/c2cc3cc(OCc4ccccc4F)ccc3nc2Cl)SC1=S (stereo partly drawn),2 µg/mL
5,CCC(C)[C@@H](C(=O)O)N1C(=O)/C(=C/c2cc3cc(OCc4cccc(F)c4)ccc3nc2Cl)SC1=S (stereo partly drawn),2 µg/mL
6,CCC(C)[C@@H](C(=O)O)N1C(=O)/C(=C/c2cc3cc(OCc4ccc(F)cc4)ccc3nc2Cl)SC1=S (stereo partly drawn),2 µg/mL

# Tested on: Staphylococcus aureus
# Test: Antibacterial activity against methicillin-resistant Staphylococcus aureus CCARM 3506 after 24 hrs by broth microdilution method
# Type: functional
# Conditions: CCARM 3506, 24 h
row,SMILES,MIC
1,CCC(C)[C@@H](C(=O)O)N1C(=O)/C(=C/c2cc3cc(OCc4ccccc4Cl)ccc3nc2Cl)SC1=S (stereo partly drawn),1 µg/mL
2,CCC(C)[C@@H](C(=O)O)N1C(=O)/C(=C/c2cc3cc(OCc4cccc(Cl)c4)ccc3nc2Cl)SC1=S (stereo partly drawn),1 µg/mL
3,CCC(C)[C@@H](C(=O)O)N1C(=O)/C(=C/c2cc3cc(OCc4ccc(Cl)cc4)ccc3nc2Cl)SC1=S (stereo partly drawn),1 µg/mL
4,CCC(C)[C@@H](C(=O)O)N1C(=O)/C(=C/c2cc3cc(OCc4ccccc4F)ccc3nc2Cl)SC1=S (stereo partly drawn),1 µg/mL
5,CCC(C)[C@@H](C(=O)O)N1C(=O)/C(=C/c2cc3cc(OCc4cccc(F)c4)ccc3nc2Cl)SC1=S (stereo partly drawn),1 µg/mL
6,CCC(C)[C@@H](C(=O)O)N1C(=O)/C(=C/c2cc3cc(OCc4ccc(F)cc4)ccc3nc2Cl)SC1=S (stereo partly drawn),1 µg/mL

# Tested on: Staphylococcus aureus
# Test: Antibacterial activity against Staphylococcus aureus KCTC 503 after 24 hrs by broth microdilution method
# Type: functional
# Conditions: KCTC 503, 24 h
row,SMILES,MIC
1,CCC(C)[C@@H](C(=O)O)N1C(=O)/C(=C/c2cc3cc(OCc4ccccc4Cl)ccc3nc2Cl)SC1=S (stereo partly drawn),8 µg/mL
2,CCC(C)[C@@H](C(=O)O)N1C(=O)/C(=C/c2cc3cc(OCc4cccc(Cl)c4)ccc3nc2Cl)SC1=S (stereo partly drawn),4 µg/mL
3,CCC(C)[C@@H](C(=O)O)N1C(=O)/C(=C/c2cc3cc(OCc4ccc(Cl)cc4)ccc3nc2Cl)SC1=S (stereo partly drawn),4 µg/mL
4,CCC(C)[C@@H](C(=O)O)N1C(=O)/C(=C/c2cc3cc(OCc4ccccc4F)ccc3nc2Cl)SC1=S (stereo partly drawn),4 µg/mL
5,CCC(C)[C@@H](C(=O)O)N1C(=O)/C(=C/c2cc3cc(OCc4cccc(F)c4)ccc3nc2Cl)SC1=S (stereo partly drawn),8 µg/mL
6,CCC(C)[C@@H](C(=O)O)N1C(=O)/C(=C/c2cc3cc(OCc4ccc(F)cc4)ccc3nc2Cl)SC1=S (stereo partly drawn),4 µg/mL

# Tested on: Staphylococcus aureus
# Test: Antibacterial activity against methicillin-resistant Staphylococcus aureus CCARM 3167 after 24 hrs by broth microdilution method
# Type: functional
# Conditions: CCARM 3167, 24 h
row,SMILES,MIC
1,CCC(C)[C@@H](C(=O)O)N1C(=O)/C(=C/c2cc3cc(OCc4ccccc4Cl)ccc3nc2Cl)SC1=S (stereo partly drawn),2 µg/mL
2,CCC(C)[C@@H](C(=O)O)N1C(=O)/C(=C/c2cc3cc(OCc4cccc(Cl)c4)ccc3nc2Cl)SC1=S (stereo partly drawn),2 µg/mL
3,CCC(C)[C@@H](C(=O)O)N1C(=O)/C(=C/c2cc3cc(OCc4ccc(Cl)cc4)ccc3nc2Cl)SC1=S (stereo partly drawn),1 µg/mL
4,CCC(C)[C@@H](C(=O)O)N1C(=O)/C(=C/c2cc3cc(OCc4ccccc4F)ccc3nc2Cl)SC1=S (stereo partly drawn),2 µg/mL
5,CCC(C)[C@@H](C(=O)O)N1C(=O)/C(=C/c2cc3cc(OCc4cccc(F)c4)ccc3nc2Cl)SC1=S (stereo partly drawn),2 µg/mL
6,CCC(C)[C@@H](C(=O)O)N1C(=O)/C(=C/c2cc3cc(OCc4ccc(F)cc4)ccc3nc2Cl)SC1=S (stereo partly drawn),2 µg/mL
